Results: patent US7803930B2, “Antisense modulation of apolipoprotein B-expression” (Isis Pharmaceuticals, Inc., priority 2002, dated 2010)
In the oligonucleotide strings, read from the 5' end, every base follows the letter of its sugar. An asterisk marks phosphorothioate; unmarked linkages are phosphodiester. Other units and linkages are bracketed, terminal groups are in braces. A string of capitals states the bases alone. e = 2'-O-(2-methoxyethyl) (MOE); [5mC] = 5-methylcytosine; d = 2'-deoxy (DNA)

Columns and labels:
Type in all cases: cell-based
[1] = tested on: human apolipoprotein B mRNA; experiment: Inhibition of apolipoprotein B mRNA by dsRNAs in HepG2 cells; conditions: 150 nM with 3.75 μg/mL LIPOFECTIN
Procedure: In accordance with the present invention, a series of nucleic acid duplexes comprising the antisense compounds of the present invention and their complements were designed to target apolipoprotein B and are shown in Table 42. All compounds in Table 42 are oligoribonucleotides 20 nucleotides in length with phosphodiester internucleoside linkages (backbones) throughout the compound. The compounds were prepared with blunt ends. […] These sequences are shown to contain uracil (U) but one of skill in the art will appreciate that uracil (U) is generally replaced by thymine (T) in DNA sequences. “Targer site” indicates the first (5′-most) nucleotide number on the particular target sequence to which the compound binds. A subset of the compounds in Table 42 are the RNA equivalents of DNA antisense oligonucleotides described herein, and, where applicable, this is noted by the ISIS # of the DNA oligonucleotide in the column “RNA equivalent of ISIS #”.
The dsRNA compounds in Table 42 were tested for their effects on human apolipoprotein mRNA in HepG2 cells. HepG2 cells were treated with 100 nM of dsRNA compounds mixed with 5 μg/mL LIPOFECTIN (Invitrogen Corporation, Carlsbad, Calif.) for a period of 16 hours. In the same experiment, HepG2 cells were also treated with 150 nM of subset of the antisense oligonucleotides described herein mixed with 3.75 μg/mL LIPOFECTIN; these compounds are listed in Table 43. Control oligonucleotides included ISIS 18078 ([…], SEQ ID NO: 888). ISIS 18078 is a chimeric oligonucleotide (“gapmer”) 20 nucleotides in length, composed of a central “gap” region consisting of 9 2′-deoxynucleotides, which is flanked on the 5′ and 3′ ends by a five-nucleotide “wing” and a six-nucleotide “wing”, respectively. The wings are composed of 2′-methoxyethyl (2′-MOE)nucleotides. The internucleoside (backbone) linkages are phosphorothioate (P═S) throughout the oligonucleotide. All cytidines are 5-methylcytidines. The duplex of ISIS 263188 ([…], SEQ ID NO: 889) and its complement was also used as a control. ISIS 263188 is an oligoribonucleotide 21 nucleotides in length with the 2 nucleotides on the 3′ end being oligodeoxyribonucleotides (TT) and with phosphodiester internucleoside linkages (backbones) throughout the compound.
Cells were treated for 4 hours, after which human apolipoprotein B mRNA expression was measured as described by examples herein. Results were normalized to untreated control cells, which were not treated with LIPOFECTIN or oligonucleotide.

[2] = tested on: human apolipoprotein B mRNA; experiment: Inhibition of human apolipoprotein B mRNA levels in HepG2 cells, quantitative real-time PCR; conditions: for % INHIB (inhibition of human apolipoprotein B mRNA levels): HepG2 cells treated with 150 nM of compound, averages from two experiments, quantitative real-time PCR; for % inhibition 37 nM / % inhibition 75 nM / % inhibition 150 nM / % inhibition 300 nM: Table 19 dose response, HepG2 cells, normalized to untreated control
Outline: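 HepG2 cells at 80% confluency were transfected with antisense oligonucleotide using 3.75 μg/mL Lipofectin in Opti-MEM for 4-7 h and harvested 16-24 h after treatment. Apolipoprotein B mRNA was measured by real-time RT-PCR and normalized to GAPDH or RiboGreen total RNA. Percent inhibition came from untreated-control standard curves.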

[3] = tested on: Cynomolgous monkey apolipoprotein B mRNA; experiment: Apolipoprotein B mRNA in primary Cynomolgous monkey hepatocytes, real-time PCR; conditions: primary Cynomolgous monkey hepatocytes, 24 hours (Table 46)
Procedure: Antisense inhibition by ISIS 301012 was compared to that of ISIS 326358, which is a perfect match to the Cynomolgous monkey apolipoprotein B sequence to which ISIS 301012 hybridizes. The compounds were analyzed for their effect on Cynomolgous monkey apolipoprotein B mRNA levels in primary Cynomolgous monkey hepatocytes purchased from In Vitro Technologies ([…].). Pre-plated primary Cynonomolgous monkey hepatocytes were purchased from InVitro Technologies (Baltimore, Md.). Cells were cultured in high-glucose DMEM (Invitrogen Corporation, Carlsbad, Calif.) supplemented with 10% fetal bovine serum (Invitrogen Corporation, Carlsbad, Calif.), 100 units/mL and 100 μg/mL streptomycin (Invitrogen Corporation, Carlsbad, Calif.).
Primary Cynomolgous monkey hepatocytes were treated with 10, 50, 150 or 300 nM of antisense oligonucleotides for 48 hours. ISIS 113529 (SEQ ID NO: 859) was used as a control oligonucleotide. Untreated cells also served as a control. Cynomolgous monkey apolipoprotein B mRNA levels were quantitated by real-time PCR using the human apolipoprotein B and GAPDH primers and probes described by other examples herein. The results, shown in Table 44, are the average of 6 experiments and are expressed as percent inhibition of apolipoprotein B mRNA normalized to untreated control cells.
In a further embodiment of the invention, antisense inhibition by ISIS 281625 was compared to that by ISIS 315089, which is a perfect match to the Cynomolgous monkey apolipoprotein B sequence to which ISIS 281625 hybridizes. Primary Cynomolgous monkey hepatocytes, cultured as described herein, were treated with 10, 50, 150 or 300 nM of ISIS 315089 or ISIS 281625 for 24 hours. Cells were treated with the control oligonucleotide ISIS 13650 (SEQ ID NO: 806) at 150 and 300 nM or ISIS 113529 (SEQ ID NO: 859) at 300 nM. Untreated cells also served as a control. Cynomolgous monkey apolipoprotein B mRNA levels in primary Cynomolgous monkey hepatocytes was quantitated using real-time PCR with human primers and probe as described by other examples herein. The results, shown in Table 46, are the average of 3 experiments and are expressed as percent inhibition of apolipoprotein B mRNA normalized to untreated control cells.
ISIS 271009 (SEQ ID NO: 319) and ISIS 301027 (SEQ ID NO: 262) were also tested for their effects on apolipoprotein B mRNA and protein expression in Cynomolgous primary hepatoctyes. Cells, cultured as described herein, were treated with 10, 50 and 150 nM of ISIS 271009 or ISIS 301027 for 24 hours. Cells were treated with the control oligonucleotide ISIS 113529 (SEQ ID NO: 859) at 150 nM. Untreated cells also served as a control. Cynomolgous monkey apolipoprotein B mRNA levels in primary Cynomolgous monkey hepatocytes was quantitated using real-time PCR with human primers and probe as described by other examples herein. The results, shown in Table 48, are the average of 2 experiments and are expressed as percent inhibition of apolipoprotein B mRNA normalized to untreated control cells.

lipoprotein(a) = experiment: Lipoprotein(a) particle secretion from primary human hepatocytes, ELISA; conditions: 150 nM, 24 hours
Procedure: Primary human hepatocytes (InVitro Technologies, Baltimore, Md.), cultured and transfected as described herein, were treated for 24 hours with 50 or 150 nM of ISIS 271009 (SEQ ID NO: 319), 281625 (SEQ ID NO: 224), 301012 (SEQ ID NO: 247) or 301027 (SEQ ID NO: 262). Cells were also treated with 150 nM of the control oligonucleotides ISIS 113529 (SEQ ID NO: 859) or ISIS 13650 (SEQ ID NO: 806). Untreated cells served as a control. Following 24 hours of oligonucleotide treatment, the amount of lipoprotein(a) in the culture medium collected from the treated cells was measured using a commercially available ELISA kit (ALerCHEK Inc., Portland, Me.). The results are the average of three experiments and are expressed as percent change in lipoprotein(a) secretion relative to untreated controls.

[4] = tested on: human apolipoprotein(a) mRNA; experiment: Apolipoprotein(a) mRNA expression in primary human hepatocytes, real-time PCR; conditions: primary human hepatocytes, 24 hours
Procedure: Primary human hepatocytes (InVitro Technologies, Baltimore, Md.), cultured and transfected as described herein, were treated with 5, 10, 50 or 150 nM of ISIS 271009 (SEQ ID NO: 319), 281625 (SEQ ID NO: 224), 301012 (SEQ ID NO: 247) or 301027 (SEQ ID NO: 262). Cells were also treated with 50 or 150 nM of the control oligonucleotides ISIS 113529 (SEQ ID NO: 859) or ISIS 13650 (SEQ ID NO: 806). Untreated cells served as a control. Following 24 hours of oligonucleotide treatment, apolipoprotein(a) mRNA expression was measured by quantitative real-time PCR as described in other examples herein.
Probes and primers to human apolipoprotein(a) were designed to hybridize to a human apolipoprotein(a) sequence, using published sequence information (GenBank accession number NM_005577.1, incorporated herein as SEQ ID NO: 860). For human apolipoprotein(a) the PCR primers were: […]
forward primer: […] (SEQ ID NO: 861)
reverse primer: TGCGTCTGAGCATTGCGT (SEQ ID NO: 862) and the PCR probe was: FAM-[…]-TAMRA (SEQ ID NO: 863) where FAM is the fluorescent dye and TAMRA is the quencher dye.
Data are the average of three experiments and are expressed as percent inhibition relative to untreated controls.

apolipoprotein B protein = experiment: Apolipoprotein B protein secreted from primary Cynomolgous monkey hepatocytes, ELISA; conditions: primary Cynomolgous hepatocytes
Procedure: Apolipoprotein B protein secreted from primary Cynomolgous hepatocytes treated with 150 and 300 nM of oligonucleotide was measured by ELISA using an apolipoprotein B protein specific kit (ALerCHEK Inc., Portland, Me.). Each result represents the average of 3 experiments.
Apolipoprotein B protein secreted primary Cynomolgous hepatocytes treated with 50 and 150 nM of ISIS 315089 and ISIS 281625 was measured by ELISA using an apolipoprotein B protein specific kit (ALerCHEK Inc., Portland, Me.). Each result represents the average of 3 experiments.
Apolipoprotein B protein secreted from primary Cynomolgous hepatocytes treated with 50 and 150 nM of ISIS 271009 and ISIS 301027 was measured by ELISA using an apolipoprotein B protein specific kit (ALerCHEK Inc., Portland, Me.). Each result represents the average of 3 experiments.

Substance | % Inhibition of apolipoprotein B mRNA [1] | % INHIB (inhibition of human apolipoprotein B mRNA levels) [2] | % inhibition 37 nM [2] | % inhibition 75 nM [2] | % inhibition 150 nM [2] | % inhibition 300 nM [2] | % Inhibition of apolipoprotein B mRNA ([3]; 150 nM, "+" = expression increased) | % Inhibition of apolipoprotein B mRNA ([3]; 300 nM) | % Change in lipoprotein(a) secretion (lipoprotein(a)) | % Change in apolipoprotein(a) mRNA expression following antisense inhibition of apolipoprotein B ([4]; 50 nM) | % Change in apolipoprotein(a) mRNA expression following antisense inhibition of apolipoprotein B ([4]; 150 nM) | % Reduction of monkey apolipoprotein B protein secretion (apolipoprotein B protein; 50 nM (Table 47)) | % Reduction of monkey apolipoprotein B protein secretion (apolipoprotein B protein; 150 nM (Table 47)) | % Reduction of monkey apolipoprotein B protein secretion (apolipoprotein B protein; 150 nM (Table 49), "+" = secretion increased)
301037 (e[5mC]*eA*eG*e[5mC]*eT*dT*dT*dG*dG*dT*dG*d[5mC]*dA*dG*dG*eT*e[5mC]*e[5mC]*eA*eG; antisense) [compound 301037] | 80% | 90% | 73% | 85% | 89% | 96% | – | – | – | – | – | – | – | –
301045 (eA*eG*e[5mC]*eA*eA*dA*dA*dT*dA*dA*d[5mC]*dT*d[5mC]*dA*dG*eA*eT*e[5mC]*e[5mC]*eT; antisense) [compound 301045] | 77% | 90% | 77% | 86% | 94% | 98% | – | – | – | – | – | – | – | –
301031 (eA*eA*eG*eG*e[5mC]*dT*dG*dG*d[5mC]*dT*d[5mC]*dA*d[5mC]*dT*dG*eT*eA*eT*eG*eG; antisense) [compound 301031] | 73% | 90% | 61% | 82% | 92% | 96% | – | – | – | – | – | – | – | –
301029 (eG*eG*e[5mC]*eT*eG*dG*d[5mC]*dT*d[5mC]*dA*d[5mC]*dT*dG*dT*dA*eT*eG*eG*eT*eT; antisense) [compound 301029] | 77% | 90% | 54% | 67% | 79% | 85% | – | – | – | – | – | – | – | –
301030 (eA*eG*eG*e[5mC]*eT*dG*dG*d[5mC]*dT*d[5mC]*dA*d[5mC]*dT*dG*dT*eA*eT*eG*eG*eT; antisense) [compound 301030] | 70% | 90% | 64% | 75% | 87% | 92% | – | – | – | – | – | – | – | –
13650 (TCCCGCCTGTGACATGCATT; listed as DNA, chemistry not given here) [compound 13650] | – | – | – | – | – | – | +50% | 33% | +14% | −68% | −37% | 16% | 13% | +1%
